{"source": "patent US20030198659A1", "about": "“Fibrous pest control” (priority 2001, published 2003)", "key": {"[1]": {"test_system": "D. radicum", "experiment": "Fibers+optical brightener/cabbage maggot field-cage experiment", "format": "in vivo, Delia radicum", "conditions": "rate 0.033 kg ai/100-m row", "description": "Fibers+optical brightener/cabbage maggot field-cage experiment. Optical (fluorescent) brighteners are widely used in paints, fabrics, plastics and detergents, wherein they enhance the apparent brightness of the material by absorbing UV radiation and emitting light in the blue visual spectrum (Martinez et al. 2000). These brighteners were feasible to use with our existing technology and could potentially increase fiber effectiveness. Thus in mid-May 2000, we tested the efficacy of optical brighteners added to EVA fibers against cabbage maggots in four large (3.7×3.7×1.8-m) Lumite® field cages. The experiment was a randomized complete block design with four replicates (cages).\nWithin each cage, six rows (3-m long) were formed about 0.3-m apart by hand plowing. Greenhouse-grown two-leaf stage broccoli cv ‘Southern Comet’ was transplanted into the 6 rows within each cage at a plant spacing of 15 cm. One row of broccoli represented a single treatment within each cage. […]\nOn May 21 , approximately 175 D. radicum pupae were released into each of the four cages and 10% sucrose solution was provided as a food source for emerging adults. […] Total number of larvae and pupae per plant was recorded."}, "[2]": {"test_system": "Silverleaf Whiteflies", "experiment": "Greenhouse no choice oviposition of whiteflies on squash", "format": "in vivo, Bemisia argentifolii", "conditions": "spun sucrose trial", "protocol": "Whiteflies were tested with a “No Choice” protocol using single treated and untreated summer squash plants var. “Seneca.” Two liter, polyethylene soda container arenas holding a single squash plant in a potting soil mixture were used for whitefly studies. Ten mating pairs of whiteflies were introduced into each arena for all studies. Up to forty arenas, depending on the treatment parameters of a given trial, were run simultaneously under identical ambient conditions. Ambient temperature and time of day were tracked during greenhouse trials. […] Counts were made using a binocular dissecting scope. […] While EVA, graphite and PVA fibers were relatively stable in greenhouse studies, the sucrose fibers were quickly degraded by moisture and formed a sugar coating of the leafs surface with numerous raised and stable sugar droplets. This was an expected result and the efficacy of this fiber application was worthy of testing."}}, "data": [{"smiles": "CCOP(=S)(OCC)Oc1nc(Cl)c(Cl)cc1Cl", "note": "[Chlorpyrifos drench, chlorpyrifos]", "values": [{"measurement": "D. radicum larvae per 3-m row of broccoli", "setting": "[1]", "value": "6.0 ± 2.3"}]}, {"smiles": "OC[C@H]1O[C@@](CO)(O[C@H]2O[C@H](CO)[C@@H](O)[C@H](O)[C@H]2O)[C@@H](O)[C@@H]1O", "note": "[Sugar, sucrose]", "values": [{"measurement": "Total # of eggs (total mean number of eggs/plant)", "setting": "[2]", "value": 5.867}, {"measurement": "Total # of eggs (total mean number of eggs/plant)", "setting": "[2]; listed as sucrose", "value": "5.87±1.96"}]}]}
